Legend:
[1] = molecular target: T1, BRAF V600E (Homo sapiens, UniProt P15056, V600E); assay: Cellular assay of target protein degradation, T-Rex 293 cells stably transfected with HA-BRAF_V600E (HA immunofluorescence, high content imaging); format: cell-based; details: T-Rex 293 HA-BRAF V600E; for DC50: half maximal degradation, read-out: BRaf V600E DC50; for Dmax: maximum degradation observed
T1 construct: expressed in transfected cells
In short: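 24 h compound exposure, 1 μM–0.1 nM final, 0.1% DMSO, 37 °C; cells induced with 1 ng/mL doxycycline. PFA fix, Triton permeabilize, anti-HA overnight 4 °C, Hoechst/phalloidin counterstain. Output: DC50, Dmax as % control.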

[2] = molecular target: T2, BRAF G466V (Homo sapiens, UniProt P15056, G466V); assay: Cellular assay of target protein degradation, T-Rex 293 cells stably transfected with HA-BRAF G466V (HA immunofluorescence, high content imaging); format: cell-based; details: T-Rex 293 HA-BRAF G466V; for DC50: half maximal degradation, read-out: BRaf G466V DC50; for Dmax: maximum degradation observed
T2 construct: expressed in transfected cells
T2 sequence (P15056 whole entry G466V): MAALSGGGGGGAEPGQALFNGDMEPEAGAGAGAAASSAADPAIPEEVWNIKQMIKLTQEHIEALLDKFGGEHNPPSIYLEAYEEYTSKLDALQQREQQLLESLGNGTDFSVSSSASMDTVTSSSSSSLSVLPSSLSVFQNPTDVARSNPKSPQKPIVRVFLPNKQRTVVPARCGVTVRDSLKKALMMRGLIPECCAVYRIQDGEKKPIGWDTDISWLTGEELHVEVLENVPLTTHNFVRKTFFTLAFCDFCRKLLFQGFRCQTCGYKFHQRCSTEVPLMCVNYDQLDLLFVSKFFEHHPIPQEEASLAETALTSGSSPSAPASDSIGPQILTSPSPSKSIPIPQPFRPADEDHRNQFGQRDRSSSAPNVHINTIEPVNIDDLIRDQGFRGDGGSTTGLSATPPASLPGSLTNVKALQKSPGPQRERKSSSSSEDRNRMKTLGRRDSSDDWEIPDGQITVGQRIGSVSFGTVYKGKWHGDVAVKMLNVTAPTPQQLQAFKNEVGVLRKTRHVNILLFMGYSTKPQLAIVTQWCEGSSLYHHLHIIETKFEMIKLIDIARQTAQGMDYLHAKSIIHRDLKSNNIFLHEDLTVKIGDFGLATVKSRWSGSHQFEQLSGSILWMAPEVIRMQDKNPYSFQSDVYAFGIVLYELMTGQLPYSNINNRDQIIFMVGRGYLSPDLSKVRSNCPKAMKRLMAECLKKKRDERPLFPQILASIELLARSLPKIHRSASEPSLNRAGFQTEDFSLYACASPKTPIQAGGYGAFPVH
In short: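 24 h compound, 30 nM–3 pM final, 0.1% DMSO, 37° C; HA-BRAF G466V induced with 0.75 ng/mL doxycycline. PFA fix, Triton perm, anti-HA + Alexa fluor secondary, Hoechst/phalloidin counterstain; imaging. DC50, Dmax (% of control).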

T1 sequence (P15056 whole entry V600E): as the sequence (P15056 whole entry G466V) above, with V466G, V600E counted along it

Row | DC50 [1] | Dmax [1] | DC50 [2] | Dmax [2] | SMILES
1 | 5 to 50 nM | < 35% | 1 to 10 nM | > 70% | COc1cc(N2CCC(CN3CC4(C3)CN(c3ccc(-c5cnc6[nH]cc(C(=O)c7c(F)ccc(NS(=O)(=O)N8CCC(F)(F)C8)c7F)c6c5)cc3)C4)CC2)cc2c1C(=O)N(C1CCC(=O)NC1=O)C2 (stereo not drawn) [Compound 247, N-[3-(5-{4-[6-({1-[2-(2,6-dioxopiperidin-3-yl)-7-methoxy-1-oxo-2,3-dihydro-1H-isoindol-5-yl]piperidin-4-yl}methyl)-2,6-diazaspiro[3.3]heptan-2-yl]phenyl}-1H-pyrrolo[2,3-b]pyridine-3-carbonyl)-2,4-difluorophenyl]-3,3-difluoropyrrolidine-1-sulfonamide]
2 | 5 to 50 nM | 35 to 70% | 1 to 10 nM | > 70% | COc1cc(N2CC3(CN(CC4CCN(c5ccc(-c6cnc7[nH]cc(C(=O)c8c(F)ccc(NS(=O)(=O)N9CC[C@@H](F)C9)c8F)c7c6)cc5)CC4)C3)C2)cc2c1C(=O)N([C@H]1CCC(=O)NC1=O)C2 [Compound 249, (3R)-N-{3-[5-(4-{4-[(6-{2-[(3S)-2,6-dioxopiperidin-3-yl]-7-methoxy-1-oxo-2,3-dihydro-1H-isoindol-5-yl}-2,6-diazaspiro[3.3]heptan-2-yl)methyl]piperidin-1-yl}phenyl)-1H-pyrrolo [2,3-b]pyridine-3-carbonyl]-2,4-difluorophenyl}-3-fluoropyrrolidine-1-sulfonamide]
3 | 5 to 50 nM | < 35% | 1 to 10 nM | > 70% | COc1cc(N2CC3(CN(CC4CCN(c5ccc(-c6cnc7[nH]cc(C(=O)c8c(F)ccc(NS(=O)(=O)N9CC[C@@H](F)C9)c8F)c7c6)cc5)CC4)C3)C2)cc2c1C(=O)N([C@@H]1CCC(=O)NC1=O)C2 [Compound 250, (3R)-N-{3-[5-(4-{4-[(6-{2-[(3R)-2,6-dioxopiperidin-3-yl]-7-methoxy-1-oxo-2,3-dihydro-1H-isoindol-5-yl}-2,6-diazaspiro[3.3]heptan-2-yl)methyl]piperidin-1-yl}phenyl)-1H-pyrrolo [2,3-b]pyridine-3-carbonyl]-2,4-difluorophenyl}-3-fluoropyrrolidine-1-sulfonamide]

Continued, compound first:

Row | SMILES | DC50 [1] | Dmax [1] | DC50 [2] | Dmax [2]
4 | O=C1CCC(N2Cc3cc(CCCN4CC5(C4)CN(c4ccc(-c6cnc7[nH]cc(C(=O)c8c(F)ccc(NS(=O)(=O)N9CCC(F)(F)C9)c8F)c7c6)cc4)C5)ccc3C2=O)C(=O)N1 (stereo not drawn) [Compound 248, N-(3-{5-[4-(6-{3-[2-(2,6-dioxopiperidin-3-yl)-1-oxo-2,3-dihydro-1H-isoindol-5-yl]propyl}-2,6-diazaspiro[3.3]heptan-2-yl)phenyl]-1H-pyrrolo[2,3-b]pyridine-3-carbonyl}-2,4-difluorophenyl)-3,3-difluoropyrrolidine-1-sulfonamide] | 5 to 50 nM | 35 to 70% | 1 to 10 nM | > 70%
5 | O=C1CCC(N2Cc3cc(OCCCCN4CCN(c5ccc(-c6cnc7[nH]cc(C(=O)c8c(F)ccc(NS(=O)(=O)N9CCC(F)(F)C9)c8F)c7c6)cc5)CC4)ccc3C2=O)C(=O)N1 (stereo not drawn) [Compound 251, N-[3-(5-{4-[4-(4-{[2-(2,6-dioxopiperidin-3-yl)-1-oxo-2,3-dihydro-1H-isoindol-5-yl]oxy}butyl)piperazin-1-yl]phenyl}-1H-pyrrolo[2,3-b]pyridine-3-carbonyl)-2,4-difluorophenyl]-3,3-difluoropyrrolidine-1-sulfonamide] | 5 to 50 nM | 35 to 70% | 1 to 10 nM | 35 to 70%
6 | O=C1CC[C@H](N2Cc3cc(C4CCN(CC5CCN(c6ccc(-c7cnc8[nH]cc(C(=O)c9c(F)ccc(NS(=O)(=O)N%10CC[C@@H](F)C%10)c9Cl)c8c7)cc6)CC5)CC4)ccc3C2=O)C(=O)N1 [Compound 252, (3R)-N-{2-chloro-3-[5-(4-{4-[(4-{2-[(3S)-2,6-dioxopiperidin-3-yl]-1-oxo-2,3-dihydro-1H-isoindol-5-yl}piperidin-1-yl)methyl]piperidin-1-yl}phenyl)-1H-pyrrolo [2,3-b]pyridine-3-carbonyl]-4-fluorophenyl}-3-fluoropyrrolidine-1-sulfonamide] | 5 to 50 nM | 35 to 70% | < 1 nM | 35 to 70%

Source: patent US12180193B2, “Accelerating fibrosarcoma protein degrading compounds and associated methods of use” (Arvinas Operations, Inc., priority 2020, dated 2024)
